Experiments:
[1] = target: BTK (Homo sapiens, UniProt Q06187); assay: Omnia assay for potency against BTK; assay type: biochemical; settings: read-out: BTK Inhibition
From the text: (§1) The protocol below describes continuous-read kinase assays to measure inherent potency of compounds against active forms of EGFR (WT) and EGFR (T790M/L858R) enzymes. The mechanics of the assay platform are best described by the vendor (Invitrogen, Carlsbad, Calif.) on their website at the following URL: http://www.invitrogen.com/content.cfm?pageid=11338 or http://www.invitrogen.com/site/us/en/home/Products-and-Services/Applications/Drug-Discovery/Target-and-Lead-Identification-and-Validation/KinaseBiology/KB-Misc/Biochemical-Assays/Omnia-Kinase-Assays.html.
(§2) Briefly, 10× stocks of EGFR-WT (PV3872) from Invitrogen and EGFR-T790M/L858R (40350) from BPS Bioscience, San Diego, Calif., 1.13×ATP (AS001A) and appropriate Tyr-Sox conjugated peptide substrates (KCZI001) were prepared in 1× kinase reaction buffer consisting of 20 mM Tris, pH 7.5, 5 mM MgCl2, 1 mM EGTA, 5 mM β-glycerophosphate, 5% glycerol (10× stock, KB002A) and 0.2 mM DTT (DS001A). 5 μL of each enzyme were pre-incubated in a Corning (#3574) 384-well, white, non-binding surface microtiter plate (Corning, NY) for 30 min. at 27° C. with a 0.5 μL volume of 50% DMSO and serially diluted compounds prepared in 50% DMSO. Kinase reactions were started with the addition of 45 μL of the ATP/Tyr-Sox peptide substrate mix and monitored every 30-90 seconds for 60 minutes at λex360/λem485 in a Synergy^4 plate reader from BioTek (Winooski, Vt.). At the conclusion of each assay, progress curves from each well were examined for linear reaction kinetics and fit statistics (R^2, 95% confidence interval, absolute sum of squares). Initial velocity (0 minutes to ˜30 minutes) from each reaction was determined from the slope of a plot of relative fluorescence units vs time (minutes) and then plotted against inhibitor concentration to estimate IC50 from log [Inhibitor] vs Response, Variable Slope model in GraphPad Prism from GraphPad Software (San Diego, Calif.).
The Omnia Assay Protocol for potency assessment against BTK is performed in a substantially similar manner as that described in Example 25 above except that the modified BTK-optimized reagent conditions are: • [BTK]=5 nM, [ATP]=[…], [Y5-Sox]=[…] (ATP KMapp ˜[…]).

[2] = target: T1, ITK (Homo sapiens, UniProt Q08881); assay: Omnia assay for potency against ITK; assay type: biochemical; settings: read-out: ITK inhibition
T1 sequence (Q08881 1-620): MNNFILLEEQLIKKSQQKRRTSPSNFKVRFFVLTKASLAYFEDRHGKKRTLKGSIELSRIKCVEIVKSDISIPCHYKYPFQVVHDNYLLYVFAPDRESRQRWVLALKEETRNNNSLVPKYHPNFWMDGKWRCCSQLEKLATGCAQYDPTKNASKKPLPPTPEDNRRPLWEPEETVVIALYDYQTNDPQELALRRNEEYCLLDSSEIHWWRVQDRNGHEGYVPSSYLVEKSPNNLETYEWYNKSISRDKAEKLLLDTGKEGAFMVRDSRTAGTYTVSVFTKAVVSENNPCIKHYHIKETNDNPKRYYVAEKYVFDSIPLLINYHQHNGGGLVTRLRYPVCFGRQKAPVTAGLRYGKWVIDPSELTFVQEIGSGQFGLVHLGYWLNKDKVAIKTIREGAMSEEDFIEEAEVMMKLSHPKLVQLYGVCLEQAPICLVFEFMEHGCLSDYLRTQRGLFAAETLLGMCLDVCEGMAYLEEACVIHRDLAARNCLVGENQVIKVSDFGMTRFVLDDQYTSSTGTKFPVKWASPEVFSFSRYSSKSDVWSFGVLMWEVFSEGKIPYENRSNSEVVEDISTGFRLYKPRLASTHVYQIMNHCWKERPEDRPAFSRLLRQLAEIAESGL
From the text: as §1, §2
This example describes continuous-read kinase assays to measure inherent potency of compound against active forms of ITK enzymes as described in Example 10 above except that the modified ITK-optimized reagent conditions are: • [ITK]=10 nM, [ATP]=25 μM, [Y6-Sox]=10 μM (ATP KMapp=33 μM).

[3] = target: T2, EGFR (WT) (Homo sapiens, UniProt P00533); assay: Omnia continuous-read kinase assay, EGFR (WT); assay type: biochemical; settings: read-out: EGFR inhibtion
T2 construct: purchased Invitrogen PV3872
From the text: as §1, §2
(§3) The EGFR-WT- and EGFR T790M/L858R-modified optimized reagent conditions are: • [EGFR-WT]=5 nM, [ATP]=[…], [Y12-Sox]=[…]; and [EGFR-T790M/L858R]=3 nM, [ATP]=[…], [Y12-Sox]=[…].

[4] = target: T3, EGFR (T790M/L858R) (Homo sapiens, UniProt P00533, L858R/T790M); assay: Omnia continuous-read kinase assay, EGFR (T790M/L858R); assay type: biochemical; settings: read-out: EGFR (T790M/L858R) inhibiton
T3 construct: purchased BPS Bioscience 40350
From the text: as §1, §2, §3

[5] = target: T4, JAK3 (Homo sapiens, UniProt P52333); assay: Omnia assay for potency against JAK3; assay type: biochemical; settings: read-out: JAK3 Inhibition
T4 sequence (P52333 1-1124): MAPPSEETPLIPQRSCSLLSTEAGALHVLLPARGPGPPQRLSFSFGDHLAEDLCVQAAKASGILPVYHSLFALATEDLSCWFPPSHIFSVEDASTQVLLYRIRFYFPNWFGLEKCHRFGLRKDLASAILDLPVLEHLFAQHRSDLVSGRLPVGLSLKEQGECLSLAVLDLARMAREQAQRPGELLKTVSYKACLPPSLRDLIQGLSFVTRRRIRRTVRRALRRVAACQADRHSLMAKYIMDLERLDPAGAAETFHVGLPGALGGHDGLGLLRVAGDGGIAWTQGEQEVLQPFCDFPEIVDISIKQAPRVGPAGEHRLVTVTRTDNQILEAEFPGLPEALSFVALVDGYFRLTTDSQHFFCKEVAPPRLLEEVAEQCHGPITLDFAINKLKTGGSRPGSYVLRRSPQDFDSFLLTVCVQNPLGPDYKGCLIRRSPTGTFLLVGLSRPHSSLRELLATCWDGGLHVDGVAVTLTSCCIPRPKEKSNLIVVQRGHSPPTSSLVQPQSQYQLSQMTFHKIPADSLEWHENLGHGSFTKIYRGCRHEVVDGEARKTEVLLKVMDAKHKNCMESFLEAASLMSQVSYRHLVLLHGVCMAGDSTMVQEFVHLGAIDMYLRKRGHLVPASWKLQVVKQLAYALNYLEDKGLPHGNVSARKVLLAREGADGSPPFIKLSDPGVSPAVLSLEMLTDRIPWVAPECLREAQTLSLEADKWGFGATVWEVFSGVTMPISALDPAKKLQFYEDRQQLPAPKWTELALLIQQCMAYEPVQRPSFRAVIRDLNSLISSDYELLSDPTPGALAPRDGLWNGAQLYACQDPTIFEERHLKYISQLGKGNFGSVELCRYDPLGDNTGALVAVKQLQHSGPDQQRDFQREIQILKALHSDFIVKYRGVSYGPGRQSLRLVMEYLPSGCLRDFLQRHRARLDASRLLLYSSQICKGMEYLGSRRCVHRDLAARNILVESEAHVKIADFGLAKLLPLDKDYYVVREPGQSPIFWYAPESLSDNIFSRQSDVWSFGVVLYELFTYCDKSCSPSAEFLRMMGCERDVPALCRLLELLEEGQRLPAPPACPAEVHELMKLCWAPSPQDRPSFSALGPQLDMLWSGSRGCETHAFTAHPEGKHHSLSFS
From the text: as §1, §2
The Omnia Assay Protocol for potency assessment against JAK3 is performed in a substantially similar manner as that described in Example 25 above except that the modified JAK3-optimized reagent conditions are: • [JAK3]=5 nM, [ATP]=5 μM, [Y12-Sox]=5 μM (ATP KMapp ˜[…]).

[6] = target: ErbB1 (Homo sapiens, UniProt P00533); assay: Z'-LYTE biochemical assay, ErbB1 kinase inhibition; settings: @ 1 μM
Experimental: Compounds of the present invention were assayed as inhibitors of one or more of ErbB1, ErbB2, and/or ErbB4 in a manner substantially similar to the method described by Invitrogen Corp (Invitrogen Corporation, 1600 Faraday Avenue, Carlsbad, Calif., CA; http://www.invitrogen.com/downloads/Z-LYTE_Brochure—1205.pdf) using the Z′-LYTE™ biochemical assay procedure or similar biochemical assay. The Z′-LYTE™ biochemical assay employs a fluorescence-based, coupled-enzyme format and is based on the differential sensitivity of phosphorylated and non-phosphorylated peptides to proteolytic cleavage.

[7] = system: BTK signaling in Ramos cells; assay: BTK Ramos cellular assay (PLCγ2 phosphorylation); assay type: cell-based; settings: Homo sapiens; for IC50: Ramos cells, PLCγ2 phosphorylation, read-out: BTK Inhibition
Experimental: Compounds 1-13 and (I-52) were assayed in Ramos human Burkitt lymphoma cells. Ramos cells were grown in suspension in T225 flasks, spun down, resuspended in 50 mls serum-free media and incubated for 1 hour. Compound was added to Ramos cells in serum free media to a final concentration of 1, 0.1, 0.01, or 0.001 μM. Ramos cells were incubated with compound for 1 hour, washed again and resuspended in 100 ul serum-free media. Cells were then stimulated with 1 μg of goat F(ab′)2 Anti-Human IgM and incubated on ice for 10 minutes to activate B cell receptor signaling pathways. After 10 minutes, the cells were washed once with PBS and then lysed on ice with Invitrogen Cell Extraction buffer. 16 μg total protein from lysates was loaded on gels and blots were probed for phosphorylation of the BTK substrate PLCγ2. […] Additional dose response inhibition of BTK signaling with I-13 is depicted in FIG. 9.

T3 sequence (P00533 25-1210 T790M/L858R): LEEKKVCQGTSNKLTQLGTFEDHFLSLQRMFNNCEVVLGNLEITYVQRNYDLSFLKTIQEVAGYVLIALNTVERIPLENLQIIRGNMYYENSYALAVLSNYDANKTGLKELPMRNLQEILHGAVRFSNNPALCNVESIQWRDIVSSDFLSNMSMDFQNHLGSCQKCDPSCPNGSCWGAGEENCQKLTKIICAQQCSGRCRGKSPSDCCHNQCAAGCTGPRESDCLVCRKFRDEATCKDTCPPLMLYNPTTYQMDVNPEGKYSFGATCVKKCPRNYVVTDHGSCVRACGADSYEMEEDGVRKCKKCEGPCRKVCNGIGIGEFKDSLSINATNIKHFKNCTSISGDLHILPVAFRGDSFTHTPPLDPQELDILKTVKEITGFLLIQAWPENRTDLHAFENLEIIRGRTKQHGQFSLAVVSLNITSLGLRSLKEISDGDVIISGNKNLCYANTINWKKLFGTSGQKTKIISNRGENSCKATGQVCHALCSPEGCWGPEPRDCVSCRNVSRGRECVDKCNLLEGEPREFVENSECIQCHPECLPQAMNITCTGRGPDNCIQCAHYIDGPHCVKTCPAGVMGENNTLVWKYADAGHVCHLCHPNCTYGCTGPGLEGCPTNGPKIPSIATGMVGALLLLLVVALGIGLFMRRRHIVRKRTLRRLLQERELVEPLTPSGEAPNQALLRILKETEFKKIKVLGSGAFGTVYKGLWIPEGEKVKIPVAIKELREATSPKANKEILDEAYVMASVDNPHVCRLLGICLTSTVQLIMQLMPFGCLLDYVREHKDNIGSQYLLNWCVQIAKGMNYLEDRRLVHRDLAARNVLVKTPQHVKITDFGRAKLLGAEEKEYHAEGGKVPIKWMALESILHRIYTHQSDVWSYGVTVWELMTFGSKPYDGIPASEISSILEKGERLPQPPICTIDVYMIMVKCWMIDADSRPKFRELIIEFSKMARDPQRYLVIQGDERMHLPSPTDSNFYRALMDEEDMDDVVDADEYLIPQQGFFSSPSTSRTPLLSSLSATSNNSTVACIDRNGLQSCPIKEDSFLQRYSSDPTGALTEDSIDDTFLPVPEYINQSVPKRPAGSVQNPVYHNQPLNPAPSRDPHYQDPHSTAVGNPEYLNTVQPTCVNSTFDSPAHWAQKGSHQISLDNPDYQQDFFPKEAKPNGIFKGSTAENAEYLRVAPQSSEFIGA
Chain of ErbB1 (P00533 25-1210): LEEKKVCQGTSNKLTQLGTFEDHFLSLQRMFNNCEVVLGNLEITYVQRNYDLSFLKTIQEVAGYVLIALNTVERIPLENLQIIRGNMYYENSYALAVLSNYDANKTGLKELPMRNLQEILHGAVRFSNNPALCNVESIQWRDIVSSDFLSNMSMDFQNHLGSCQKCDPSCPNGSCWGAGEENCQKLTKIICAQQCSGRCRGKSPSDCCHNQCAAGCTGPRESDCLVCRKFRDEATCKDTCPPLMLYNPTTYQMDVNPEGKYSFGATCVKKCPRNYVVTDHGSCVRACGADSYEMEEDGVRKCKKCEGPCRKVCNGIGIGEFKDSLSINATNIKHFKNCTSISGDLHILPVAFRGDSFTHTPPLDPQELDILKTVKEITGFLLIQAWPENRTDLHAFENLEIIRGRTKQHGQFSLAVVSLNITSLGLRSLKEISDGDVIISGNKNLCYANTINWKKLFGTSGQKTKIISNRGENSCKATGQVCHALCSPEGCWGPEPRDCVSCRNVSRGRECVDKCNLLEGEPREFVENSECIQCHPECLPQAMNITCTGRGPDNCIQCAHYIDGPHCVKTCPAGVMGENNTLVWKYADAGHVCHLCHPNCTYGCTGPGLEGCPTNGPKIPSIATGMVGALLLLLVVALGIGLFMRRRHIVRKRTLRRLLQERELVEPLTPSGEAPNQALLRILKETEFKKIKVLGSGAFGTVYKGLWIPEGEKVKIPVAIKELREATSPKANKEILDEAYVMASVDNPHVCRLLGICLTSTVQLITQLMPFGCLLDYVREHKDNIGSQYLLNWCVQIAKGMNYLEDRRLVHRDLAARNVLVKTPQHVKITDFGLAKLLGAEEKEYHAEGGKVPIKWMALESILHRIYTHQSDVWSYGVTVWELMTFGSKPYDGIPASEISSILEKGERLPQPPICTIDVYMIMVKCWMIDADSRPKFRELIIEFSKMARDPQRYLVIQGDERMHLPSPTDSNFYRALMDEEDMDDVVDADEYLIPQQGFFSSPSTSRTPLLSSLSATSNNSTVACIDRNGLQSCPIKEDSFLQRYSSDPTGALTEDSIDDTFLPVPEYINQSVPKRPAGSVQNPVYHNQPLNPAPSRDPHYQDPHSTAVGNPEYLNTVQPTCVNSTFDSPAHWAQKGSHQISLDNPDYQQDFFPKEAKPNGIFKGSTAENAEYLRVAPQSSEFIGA
T2 sequence (P00533 25-1210): as above
Chain of BTK (Q06187 whole entry): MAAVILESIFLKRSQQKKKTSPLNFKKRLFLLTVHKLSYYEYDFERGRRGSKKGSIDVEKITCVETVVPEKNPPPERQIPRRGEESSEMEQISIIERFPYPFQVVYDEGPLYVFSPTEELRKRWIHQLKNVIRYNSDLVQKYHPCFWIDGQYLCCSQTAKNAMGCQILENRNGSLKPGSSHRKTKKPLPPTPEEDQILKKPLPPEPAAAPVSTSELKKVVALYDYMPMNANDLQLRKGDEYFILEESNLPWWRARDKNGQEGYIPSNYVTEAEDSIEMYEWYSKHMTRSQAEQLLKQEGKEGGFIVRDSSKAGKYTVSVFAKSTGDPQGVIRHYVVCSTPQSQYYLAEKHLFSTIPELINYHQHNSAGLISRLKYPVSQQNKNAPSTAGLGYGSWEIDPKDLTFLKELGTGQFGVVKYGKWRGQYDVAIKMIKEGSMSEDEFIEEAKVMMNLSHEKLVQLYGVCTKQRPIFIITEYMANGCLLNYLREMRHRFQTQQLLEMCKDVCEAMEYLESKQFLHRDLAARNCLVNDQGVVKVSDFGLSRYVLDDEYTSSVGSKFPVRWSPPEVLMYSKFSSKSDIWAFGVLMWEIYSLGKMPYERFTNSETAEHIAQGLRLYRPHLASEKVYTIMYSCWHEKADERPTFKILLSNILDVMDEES

Row | Structure (SMILES) | IC50 [1] [µM] | IC50 [2] [µM] | IC50 [3] [µM] | IC50 [4] [µM] | IC50 [5] [µM] | inhibition at 1 µM [6] [%] | IC50 [7] [µM] | inhibition at 1 µM ([7]; Ramos, at 1 μM, 1 hour) [%]
1 | C=CS(=O)(=O)Nc1cccc(Nc2cc(Oc3cccc(C(F)(F)F)c3)ncn2)c1 [I-10] | 0.1 to 1 | ≥ 10 | ≤ 0.01 | 0.1 to 1 | 0.1 to 1 | 96 | – | –
2 | C=CC(=O)Nc1cccc(Nc2cc(Oc3ccc(Oc4ccccc4)cc3)ncn2)n1 [I-66)] | – | – | – | – | – | – | ≤ 0.01 | –
3 | C=CC(=O)Nc1cccc(Nc2cc(N3CCc4ccccc43)ncn2)c1 [I-14] | 0.1 to 1 | 1 to 10 | ≤ 0.01 | 0.01 to 0.1 | ≤ 0.01 | 96 | – | –
4 | COc1ccc(NC(=O)/C=C/CN(C)CCCCNC(=O)OC(C)(C)C)cc1Nc1cc(Nc2ccc(F)c(Cl)c2)ncn1 [I-98] | 0.1 to 1 | ≥ 10 | ≤ 0.01 | – | – | – | – | –
5 | C=CC(=O)Nc1cccc(Nc2cc(Oc3cccc(C)c3)ncn2)n1 [I-65)] | – | – | – | – | – | – | ≤ 0.01 | –
6 | C=CC(=O)Nc1cccc(Nc2cc(N(C)c3ccccc3)ncn2)c1 [I-15, N-{3-[6-(N-methyl-N-phenylamino)-pyrimidin-4-ylamino]phenyl}-2 propenamide] | 0.01 to 0.1 | 1 to 10 | ≤ 0.01 | 0.01 to 0.1 | 0.01 to 0.1 | 98 | – | –
7 | CC#CC(=O)c1cccc(Nc2cc(Nc3ccc(Oc4ccccc4)cc3)ncn2)c1 [I-88, 1-(3-(6-(4-phenoxyphenylamino)pyrimidin-4-ylamino)phenyl)but-2-yn-1-one] | ≤ 0.01 | 0.01 to 0.1 | ≤ 0.01 | – | – | – | – | –

Continued, in another order:

Row | IC50 [1] [µM] | IC50 [2] [µM] | IC50 [3] [µM] | IC50 [4] [µM] | IC50 [5] [µM] | inhibition at 1 µM [6] [%] | IC50 [7] [µM] | Structure (SMILES) | inhibition at 1 µM ([7]; Ramos, at 1 μM, 1 hour) [%]
8 | ≤ 0.01 | 0.1 to 1 | ≤ 0.01 | – | – | – | – | C=CC(=O)Nc1cc(Nc2cc(Oc3ccc(Oc4ccccc4)cc3)ncn2)ccc1N1CCOCC1 [I-101, N-(2-morpholino-5-(6-(4-phenoxyphenoxy)pyrimidin-4-ylamino)phenyl)acrylamide] | –
9 | ≤ 0.01 | 0.1 to 1 | ≤ 0.01 | – | – | – | – | C=CC(=O)Nc1cccc(Nc2cc(Oc3cccc(OC)c3)ncn2)n1 [I-90, N-(6-(6-(3-methoxyphenoxy)pyrimidin-4-ylamino)pyridine-2-yl)acrylamide] | –
10 | ≤ 0.01 | – | ≤ 0.01 | – | – | – | ≤ 0.01 | COc1ccc(NC(=O)/C=C/CN(C)CCCCNC(=O)CCCC(=O)NCCCOCCOCCOCCCNC(=O)CCCC[C@@H]2SC[C@@H]3NC(=O)N[C@@H]32)cc1Nc1cc(Nc2ccc(F)c(Cl)c2)ncn1 [I-99, N^1-(4-(((E)-4-(3-(6-(3-chloro-4-fluorophenylamino)pyrimidin-4-ylamino)-4-methoxyphenylamino)-4-oxobut-2-enyl)(methyl)amino)butyl)-N^5-(15-oxo-19-((3aS,4S,6aR)-2-oxohexahydro-1H-thieno[3,4-d]imidazol-4-yl)-4,7,10-trioxa-14-azanonadecyl)glutaramide] | –
11 | ≤ 0.01 | ≥ 10 | ≤ 0.01 | – | – | – | ≤ 0.01 | C=CC(=O)Nc1cccc(Nc2cc(Oc3ccc4c(c3)OCCO4)ncn2)n1 [I-95, N-(6-(6-(2,3-dihydrobenzo[b][1,4]dioxin-6-yloxy)pyrimidin-4-ylamino)pyridin-2-yl)acrylamide] | –
12 | ≤ 0.01 | 0.1 to 1 | ≤ 0.01 | – | – | – | – | CC=CC(=O)c1cccc(Nc2cc(Nc3ccc(Oc4ccccc4)cc3)ncn2)c1 (mixture of isomers) [I-89, (E,Z)-1-(3-(6-(4-phenoxyphenylamino)pyrimidin-4-ylamino)phenyl)but-2-en-1-one] | –
13 | ≤ 0.01 | – | ≤ 0.01 | – | ≤ 0.01 | – | – | CN(C)C/C=C/C(=O)Nc1cccc(Nc2cc(Nc3ccc(F)c(Cl)c3)ncn2)n1 [I-52] | 50
